From ChEMBL document CHEMBL3885881, “DrugMatrix”

Species: Rattus norvegicus
Assay: DrugMatrix - Regimen: Daily Repeat
Assay type: toxicity, organism-based, Sprague-Dawley
Set-up: regimen Daily Repeat, gender Male, age 6-8 weeks
Settings: in vivo, po, 0 mg/kg, route oral GAVAGE, dose level Control, vehicle 100 % WATER
[1] = 72 h, tissue Plasma, time 3 day
[2] = 120 h, tissue Blood, time 5 day
[3] = 120 h, tissue Plasma, time 5 day

CADMIUM ACETATE
ABSOLUTE BASOPHIL (72 h, tissue Blood, time 3 day): 0 CELLS/uL | ABSOLUTE EOSINOPHIL (72 h, tissue Blood, time 3 day): 0 CELLS/uL | ABSOLUTE LYMPHOCYTE (72 h, tissue Blood, time 3 day): 10386.33 CELLS/uL | ABSOLUTE MONOCYTE (72 h, tissue Blood, time 3 day): 88.5 CELLS/uL | ABSOLUTE SEGMENTED NEUTROPHIL (72 h, tissue Blood, time 3 day): 1008.5 CELLS/uL | BASOPHIL (72 h, tissue Blood, time 3 day): 0% | EOSINOPHIL (72 h, tissue Blood, time 3 day): 0% | ERYTHROCYTE COUNT (72 h, tissue Blood, time 3 day): 5.16 x10E6/uL | HEMATOCRIT (72 h, tissue Blood, time 3 day): 32.43% | HEMOGLOBIN (72 h, tissue Blood, time 3 day): 12.98 G/DL | LEUKOCYTE COUNT (72 h, tissue Blood, time 3 day): 11.48 x10E3/uL | LYMPHOCYTE (72 h, tissue Blood, time 3 day): 92.33% | MEAN CORPUSCULAR HEMOGLOBIN (72 h, tissue Blood, time 3 day): 25.23 pg | MEAN CORPUSCULAR HEMOGLOBIN CONCENTRATION (72 h, tissue Blood, time 3 day): 40.08 G/DL | MEAN CORPUSCULAR VOLUME (72 h, tissue Blood, time 3 day): 62.95 fL | MONOCYTE (72 h, tissue Blood, time 3 day): 0.67% | NEUTROPHIL (72 h, tissue Blood, time 3 day): 7% | NUCLEATED RED BLOOD CELLS (72 h, tissue Blood, time 3 day): 0 /100WBC | PLATELET COUNT (72 h, tissue Blood, time 3 day): 1016.67 x10E3/uL | ALANINE AMINOTRANSFERASE [1]: 62.17 u/L | ALBUMIN [1]: 3.95 G/DL | ALKALINE PHOSPHATASE [1]: 363.5 u/L | ASPARTATE AMINOTRANSFERASE [1]: 118 u/L | BLOOD UREA NITROGEN [1]: 14.5 mg/dL | CARBON DIOXIDE [1]: 22.83 mmol/L | CHOLESTEROL [1]: 66 mg/dL | CREATINE PHOSPHOKINASE [1]: 1308.83 u/L | CREATININE [1]: 0.22 mg/dL | GLUCOSE [1]: 187.5 mg/dL | LACTATE DEHYDROGENASE [1]: 380.17 u/L | LIPASE [1]: 16.17 u/L | PHOSPHORUS [1]: 14.27 mg/dL | POTASSIUM [1]: 6.8 MEQ/L | TOTAL BILIRUBIN [1]: 0.2 mg/dL | TOTAL PROTEIN [1]: 5.68 G/DL | URIC ACID [1]: 2.87 mg/dL | ABSOLUTE BASOPHIL [2]: 0 CELLS/uL | ABSOLUTE EOSINOPHIL [2]: 80 CELLS/uL | ABSOLUTE LYMPHOCYTE [2]: 13301.33 CELLS/uL | ABSOLUTE MONOCYTE [2]: 180.83 CELLS/uL | ABSOLUTE SEGMENTED NEUTROPHIL [2]: 1187.83 CELLS/uL | BASOPHIL [2]: 0% | EOSINOPHIL [2]: 0.5% | ERYTHROCYTE COUNT [2]: 5.54 x10E6/uL | HEMATOCRIT [2]: 35.65% | HEMOGLOBIN [2]: 14.22 G/DL | LEUKOCYTE COUNT [2]: 14.75 x10E3/uL | LYMPHOCYTE [2]: 90.67% | MEAN CORPUSCULAR HEMOGLOBIN [2]: 25.65 pg | MEAN CORPUSCULAR HEMOGLOBIN CONCENTRATION [2]: 39.88 G/DL | MONOCYTE [2]: 1% | NEUTROPHIL [2]: 7.83% | NUCLEATED RED BLOOD CELLS [2]: 0.17 /100WBC | PLATELET COUNT [2]: 1285.33 x10E3/uL | ALANINE AMINOTRANSFERASE [3]: 51.67 u/L | ALKALINE PHOSPHATASE [3]: 391.5 u/L | ASPARTATE AMINOTRANSFERASE [3]: 99.5 u/L | BLOOD UREA NITROGEN [3]: 15.5 mg/dL | CARBON DIOXIDE [3]: 28.33 mmol/L | CHOLESTEROL [3]: 67.83 mg/dL | CREATINE PHOSPHOKINASE [3]: 771.33 u/L | CREATININE [3]: 0.23 mg/dL | GLUCOSE [3]: 156.5 mg/dL | LACTATE DEHYDROGENASE [3]: 544.33 u/L | LIPASE [3]: 10.17 u/L | PHOSPHORUS [3]: 12.03 mg/dL | POTASSIUM [3]: 6.81 MEQ/L | TOTAL BILIRUBIN [3]: 0.22 mg/dL | TOTAL PROTEIN [3]: 6 G/DL | URIC ACID [3]: 2.18 mg/dL
